The subject of data set [1] is Six1/Eya2-mediated transcription. Nature of the data set: MEF3-promoter luciferase assay in MCF7 cells. In kind it is cell-based. As to conditions: compound incubated 48 hours. The protocol: MCF7 cells were plated in 24-well plates at 25,000 cells/well. 24 hours later, cells were transfected with 300 ng/well pGL3-6xMEF3 (a promoter-luciferase construct in which the promoter contains 6 well characterized Six1 MEF3 binding sites (Spitz et al., 1998)), 70 ng/well renilla luciferase, 100 ng/well pcDNA3.1 Six1, and 200 ng/well of pcDNA3.1-FLAG-Eya2 using FuGENE 6 (Roche Applied Science) transfection reagent. The following day the media was changed and 24 hours later lysates were prepared and analyzed with the Dual Luciferase Kit (Promega) on a Modulus Microplate (Turner Biosystems). An Eya2 phosphatase-dead mutant (D274N) was also used in place of wild type Eya2 to evaluate the effect of Eya2's phosphatase activity on transcription. To assay the effect of Eya2 phosphatase inhibitors on transcriptional activity, compound was added 24 hours after transfection and incubated for 48 hours before lysates were prepared and analyzed for luciferase activity as described above. All results were normalized to renilla activity to account for transfection efficiency and transcriptional activity was normalized to Eya2 protein expression in the Eya2 D274N rescue experiment. The inhibitory effect of the compounds was normalized to vehicle-treated control and statistical significance was determined by performing a one-way ANOVA with Dunnett's post-test on the natural log transformed normalized transcriptional activity.

Data set [2] in a line: UV-Vis spectra with Mg2+ titration. In kind it is physicochemical. The following applies: acetonitrile; for λmax without Mg2+ / λmax with Mg2+: 25 μM compound; for λmax without Mg2+: 0 mM Mg2+. The method, then: Compounds were dissolved in acetonitrile at a final concentration of 25 μM with final Mg^2+ concentration at 0, 0.5, 1, 5, 10, 25, 50, 100 and 200 mM. UV-visible spectra were obtained using an Agilent 8453 UV-Visible Spectrophotometer (Agilent Technologies) in 0.1 cm quartz cuvette at room temperature.
In order to elicit any possible weak association to Mg^2+, the inventors moved on to the organic solvent acetonitrile (Hojo et al., 2002). […] The solutions were prepared such that the absorbance was within the 0-1 range.

A short description of data set [3]: UV-Vis spectra with Na+ titration. The following applies: acetonitrile. In kind it is physicochemical. The method, then: In order to elicit any possible weak association to Mg^2+, the inventors moved on to the organic solvent acetonitrile (Hojo et al., 2002). […] The solutions were prepared such that the absorbance was within the 0-1 range. They observed a dose-dependent shift in the maximum absorbance wavelength (λmax), from 322 nm (0 mM Mg^2+) to 334 nm (100 mM Mg^2+) (FIGS. 11B, 11C). The inventors conducted a similar study with Na where the compound concentration was kept at 12.5 μM and the sodium perchlorate concentration ranged from 0 to 25 mM.

Data set [4] concerns the target T1, Eya2 ED (Homo sapiens, UniProt O00167).
T1 sequence (O00167 253-538): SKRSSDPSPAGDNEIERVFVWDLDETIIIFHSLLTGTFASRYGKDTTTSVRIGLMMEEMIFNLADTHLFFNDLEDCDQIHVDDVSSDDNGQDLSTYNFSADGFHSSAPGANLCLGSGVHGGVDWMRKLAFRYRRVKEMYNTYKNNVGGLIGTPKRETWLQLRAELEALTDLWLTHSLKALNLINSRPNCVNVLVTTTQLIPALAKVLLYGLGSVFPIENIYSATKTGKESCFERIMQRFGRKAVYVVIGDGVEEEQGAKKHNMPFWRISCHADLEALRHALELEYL
As to conditions: no extra Mg2+ added.
Method: In order to provide evidence for the binding between hydrazides with Eya2, thermal shift experiments were performed to evaluate if Eya2 melting temperature (Tm) could be positively shifted in the presence of different concentrations of hydrazides. Compounds were serially diluted in DMSO in 96-well polypropylene plates (Thermo Fisher Scientific). A mixture of 49 μl of Eya2 and SYPRO Orange (5000× stock solution, Invitrogen) were transferred to a 96-well skirted thin-wall PCR plate (Bio-Rad) with a final concentration of 1 μM and 5×, respectively. Compounds prepared in the aforementioned mother plate were subsequently added to the protein-dye mixture, with final concentrations ranging from 0.34 nM to 200 μM (final volume 50 μl). DMSO alone was also transferred within each compound dilution series as a control sample. DMSO concentration was consistent across each dilution series and was maintained at 2%. The plate was sealed with Optical-Quality Sealing Tape (Bio-Rad) and was centrifuged at 1000 rpm for 20 s before heating commenced. Plate heating was performed on an iQ5 real-time PCR detection system (Bio-Rad) from 20 to 95° C. with an increment of 1° C. and a ramping rate of 0.1° C./s. A CCD camera was used to measure SYPRO Orange fluorescence through a filter set corresponding to excitation and emission wavelengths of 490 and 575 nm, respectively. […]

SMILES strings stand for the structures. Entries after “also recorded” stand apart in the source; their conditions may differ.

On to `O=C(N/N=C/c1ccc(Sc2ccccn2)o1)c1ccncc1` [NCGC00241224], for which the “Effect on Six1/Eya2-mediated transcription from the MEF3-luciferase reporter” value in data set [1] was “does not significantly affect; also recorded: does not significantly inhibit”.

In the case of `Cc1ccccc1C(=O)N/N=C/c1ccc(Sc2ccccn2)o1` [MLS000585814], the “Effect on Six1/Eya2-mediated transcription from the MEF3-luciferase reporter” value in data set [1] was “diminish; also recorded: inhibit”. Further, the “λmax without Mg2+” value in data set [2] is given as 316 nm. Further, in data set [2] (50 mM Mg2+), the “λmax with Mg2+” value is recorded as 327 nm.

`O=C(N/N=C/c1ccc(Sc2ccccn2)o1)c1cccc(F)c1` [MLS000544460]: in data set [1], the “Effect on Six1/Eya2-mediated transcription from the MEF3-luciferase reporter” value is reported as “inhibit”. The “Effect on Six1/Eya2-mediated transcription from the MEF3-luciferase reporter” value in data set [1] (listed as MLS00044460) is reported as “diminish”. The “λmax when titrated with Na+” value in data set [3] was found to be 323 nm. Moreover, in data set [2], the “Intrinsic affinity for Mg2+” value was “very weak intrinsic affinity” and the “λmax without Mg2+” value is given as 322 nm. Further, in data set [2] (100 mM Mg2+), the “λmax with Mg2+” value came to 334 nm.

As to `O=C(O)CN(CCN(CC(=O)O)CC(=O)O)CC(=O)O` [EDTA], the “Effect on ED melting temperature (Tm)” value in data set [4] was “reduces Tm”.
